Like-named read-outs stand apart in the source and are kept apart here. Each block holds one compound with its values, some of them ahead of it.
Key:
[1] = biological target: T1, M1 receptor (rat cortex) (Rattus norvegicus, UniProt P08482); test: M1 [3H]pirenzepine binding in rat cortex; details: for inhibition at 1 µM: read-out: M1 3H PZ binding in rat cortex at 1 μM, % inhibition
T1 construct: from tissue; host or cells: rat brain cortex
T1 sequence (P08482 1-460): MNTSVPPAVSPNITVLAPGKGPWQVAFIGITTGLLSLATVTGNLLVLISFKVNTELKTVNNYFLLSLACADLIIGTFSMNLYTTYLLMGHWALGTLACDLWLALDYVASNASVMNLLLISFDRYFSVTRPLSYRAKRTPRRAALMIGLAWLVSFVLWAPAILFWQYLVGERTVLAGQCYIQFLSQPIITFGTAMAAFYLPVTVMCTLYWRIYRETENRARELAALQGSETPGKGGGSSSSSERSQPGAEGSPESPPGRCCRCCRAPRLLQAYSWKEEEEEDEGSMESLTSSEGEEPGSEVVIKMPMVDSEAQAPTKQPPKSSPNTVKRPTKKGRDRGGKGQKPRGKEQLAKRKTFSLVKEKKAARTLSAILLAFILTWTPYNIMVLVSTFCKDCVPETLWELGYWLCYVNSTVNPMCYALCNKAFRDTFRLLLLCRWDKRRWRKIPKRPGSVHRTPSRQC

[2] = tested on: Male CFW mice (scopolamine-induced hyperactivity); test: Reversal of scopolamine-induced hyperactivity in mouse swim tank; format: in vivo; details: ip, 5 min, 0.3 mg/kg scopolamine.HBr, swim distance, read-out: minimum effective dose (MED), reversing the hyperactivity of scopolamine treated animals
Procedure: The compound of Example 1 was also tested in accordance with the procedure of Symons et al, Soc. Neuroscience Abstracts 12:2, 897 (1986) in which Male CFW mice, 25 to 35 grams in weight are given the test compound in suitable vehicle plus 0.3 mg/kg scopoolamine.HBr in suitable vehicle, i.p.(3 groups of 12 animals each) or vehicle alone (1 group of 12 animals ) or vehicle plus scopolamine. HBr (1 group of 12 animals). The rates are placed in a swim tank, individually, containing 10 cm H2 O for a period of 5 minutes and the distance each animal swims is recorded.

[3] = biological target: T2, M2 receptor (rat cerebellum) (Rattus norvegicus, UniProt P10980); test: biochemical; details: read-out: M2 3H QNB binding in rat cerebellum, IC50
T2 sequence (P10980 1-466): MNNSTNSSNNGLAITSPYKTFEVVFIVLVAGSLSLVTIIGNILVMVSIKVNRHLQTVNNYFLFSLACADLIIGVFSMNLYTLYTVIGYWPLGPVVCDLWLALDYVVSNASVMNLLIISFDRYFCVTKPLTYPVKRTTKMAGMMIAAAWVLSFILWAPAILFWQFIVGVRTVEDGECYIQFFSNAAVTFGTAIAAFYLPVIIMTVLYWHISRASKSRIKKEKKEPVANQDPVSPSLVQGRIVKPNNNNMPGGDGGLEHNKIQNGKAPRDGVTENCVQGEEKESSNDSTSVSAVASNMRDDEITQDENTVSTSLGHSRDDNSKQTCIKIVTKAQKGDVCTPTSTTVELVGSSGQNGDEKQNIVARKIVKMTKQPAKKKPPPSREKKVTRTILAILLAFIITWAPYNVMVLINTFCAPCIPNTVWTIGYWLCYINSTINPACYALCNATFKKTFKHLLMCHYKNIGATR

[4] = tested on: Sprague-Dawley male rats (scopolamine-disrupted performance); test: Eight arm radial maze, reversal of scopolamine disrupted rat performance; format: in vivo; details: ip, scopolamine HBr 0.3 mg/kg s.c., test compound i.p., read-out: minimum effective dose (MED), reversal of scopolamine disrupted rat performance
Procedure: The compound of Example 1 was also tested in the eight arm radial maze test procedure in which Sprague-Dawley male rats at 85% of their free feeding weight are trained to obtain two food pellets from food cups placed at the ends of four of the eight arms radiating from a circular central area of the maze, in a five minute period. After training to a level of error (return to a previously entered arm is error) equal to or less than 2, the rats performance is disrupted with scopolamine HBr (0.3 mg/kg, s.c.) and test compound dosage (i.p.). The number of errors are then determined and compared with control receiving scopolamine alone.

[5] = biological target: T3, dopamine D-2 receptor (Rattus norvegicus, UniProt P61169); test: Dopamine D-2 receptor binding, 3H-spiroperidol, limbic brain tissue
T3 construct: from tissue; host or cells: limbic brain tissue (homogenate)
Procedure: High affinity for the dopamine D-2 receptor was established by the standard experimental test procedure of Fields, et al., Brain Res., 136, 578 (1977) and Yamamura et al., eds., Neurotransmitter Receptor Binding, Raven Press, N.Y. (1978) wherein homogenized limbic brain tissue is incubated with ^3 H-spiroperidol and various concentrations of test compound, filtered and washed and shaken with Hydrofluor scintillation cocktail (National Diagnostics) and counted in a Packard 460 CD scintillation counter.

[6] = tested on: 5-HT1A serotonin receptor; test: Serotonin 5-HT1A receptor binding, displacement of [3H]8-OHDPAT
Excerpt: High affinity for the serotonin 5-HT1A receptor was established by testing the claimed compound's ability to displace ^3 H!8-OHDPAT (dipropylaminotetralin) from the 5-HT1A serotonin receptor following the procedure of Hall et al., J. Neurochem. 44, 1685 (1985). […] The anxiolytic activity of buspirone is believed to be, at least partially, due to its 5-HT1A receptor affinity (Vander Maclen et al., Eur. J. Pharmacol. 1986, 129 (1-2) 133-130).

[7] = in vivo; cited from earlier work
[8] = tested on: patients with mild to moderate Alzheimer's Disease; details: cited from earlier work; for memory improvement in patients (in words): mild to moderate Alzheimer's Disease
[9] = tested on: 5-HT1A serotonin receptor; details: standard for anxiolytic activity; cited from earlier work

T3 sequence (P61169 whole entry): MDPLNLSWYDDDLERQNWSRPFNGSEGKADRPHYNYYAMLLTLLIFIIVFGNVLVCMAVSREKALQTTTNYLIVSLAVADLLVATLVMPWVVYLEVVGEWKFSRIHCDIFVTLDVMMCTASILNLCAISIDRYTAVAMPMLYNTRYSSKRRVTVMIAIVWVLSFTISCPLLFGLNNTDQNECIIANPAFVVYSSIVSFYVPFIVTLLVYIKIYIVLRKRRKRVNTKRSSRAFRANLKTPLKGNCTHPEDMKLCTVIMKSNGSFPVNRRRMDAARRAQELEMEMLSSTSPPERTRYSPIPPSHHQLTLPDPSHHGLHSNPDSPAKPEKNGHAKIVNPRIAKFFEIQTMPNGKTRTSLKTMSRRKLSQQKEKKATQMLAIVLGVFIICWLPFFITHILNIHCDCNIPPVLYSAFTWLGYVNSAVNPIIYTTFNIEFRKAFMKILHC

SMILES: CN(C)CCOC(=O)c1csc(NC(=O)c2cc(C(C)(C)C)c(O)c(C(C)(C)C)c2)n1 [Example 1, 2-3.5.-Bis(1.1-dimethylethyl)-4-hydroxybenzoyl!amino!-4-thiazolecarboxylic acid 2-(dimethylamino)ethyl ester]
- IC50 ([1]; rat cortex, [3H]pirenzepine, read-out: M1 3H PZ binding in rat cortex, IC50): 54 nM
- minimal effective dose [2]: 3 mg/kg
- IC50 [3]: 3400 nM
- minimal effective dose [4]: 3 mg/kg

- inhibition at 1 µM ([1]; 1 μM, rat cortex, [3H]pirenzepine): 98.6%
SMILES: CN(C)CCNC(=O)c1csc(NC(=O)c2cc(C(C)(C)C)c(O)c(C(C)(C)C)c2)n1 [Example 2, 2-3,5,-Bis(1.1-dimethylethyl)-4-hydroxybenzoyl!amino!-N-2-(dimethylamino)ethyl!-4-thiazolecarboxamide]

SMILES: CC(C)(C)c1cc(C(=O)Nc2nc(C(=O)NCCN3CC4CCC(CC4)C3)cs2)cc(C(C)(C)C)c1O [Example 3]
- inhibition at 1 µM [1]: 70.5%

SMILES: CC(C)(C)c1cc(C(=O)Nc2nc(C(=O)OCCN3CC4CCC(CC4)C3)cs2)cc(C(C)(C)C)c1O [Example 4, 2-3.5-Bis(1.1-dimethylethyl)-4-hydroxybenzoyl!amino !-4-thiazolecarboxylic acid 2-(3-azabicyclo 3.2.2.!non-3-yl)ethyl ester]
- inhibition at 1 µM [1]: 90.6%

SMILES: CC(C)(C)c1cc(C(=O)Nc2nc(C(=O)NCCCN3CC4CCC(CC4)C3)cs2)cc(C(C)(C)C)c1O [Example 5, N-3-(3-Azabicyclo 3.2.2!non-3-yl)propyl-2-3.5-bis(1.1-dimethylethyl)-4-hydroxybenzoyl!amino!-4-thiazolecarboxamide]
- inhibition at 1 µM [1]: 78%

SMILES: CC(C)(C)c1cc(C(=O)Nc2nc(C(=O)NCCCCN3CC4CCC(CC4)C3)cs2)cc(C(C)(C)C)c1O [Example 6, N-4-(3-Azabicyclo 3.2.21non-3-yl)butyl!-2-3,5-bis(1,1-dimethylethyl)-4-hydroxybenzoyl!amino!-4-thiazolecarboxamide]
- inhibition at 1 µM [1]: 86%

SMILES: CC(C)(C)c1cc(C(=O)Nc2nc(C(=O)NC3CN4CCC3CC4)cs2)cc(C(C)(C)C)c1O (stereo not drawn) [Example 7]
- inhibition at 1 µM [1]: 104%

SMILES: O=C(Nc1nc(C(=O)NC2CN3CCC2CC3)cs1)c1ccc(OCc2ccccc2)cc1 (stereo not drawn) [Example 8]
- inhibition at 1 µM [1]: 85.8%

SMILES: O=C(Nc1nc(C(=O)NCCCCN2CC3CCC(CC3)C2)cs1)c1ccc(OCc2ccccc2)cc1 [Example 9]
- inhibition at 1 µM [1]: 62%

SMILES: O=C(Nc1nc(C(=O)NCCCN2CC3CCC(CC3)C2)cs1)c1ccc(O)cc1 [Example 10, N-3-(3- Azabicyclo 3.2.2!non-3-yl)propyl-2-4-hydroxybenzoyl!amino-4-thiazolecarboxamide]
- inhibition at 1 µM [1]: 58.7%

SMILES: O=C(Nc1nc(C(=O)NCCCCN2CC3CCC(CC3)C2)cs1)c1ccc(O)cc1 [Example 11, N-4-(3-Azabicyclo 3.2.2!non-3-yl)butyl-2-4-hydroxybenzoyl!amino!-4-thiazolecarboxamide]
- inhibition at 1 µM [1]: 63.9%

SMILES: O=C(Cc1csc(NC(=O)c2ccc(F)cc2)n1)NCCCCN1CC2CCC(CC2)C1 [Example 12, N-4-(3-Azabicyclo 3.2.2!non-3-yl)butyl-2-(4-fluorobenzoyl)amino!-4-thiazoleacetamide]
- inhibition at 1 µM [1]: 57%

- inhibition at 1 µM [5]: 81%
- 5-HT1A Binding (% Inhibition at 1 μM) [6]: 100%
SMILES: COc1ccccc1N1CCN(CCCOC(=O)Cc2csc(NC(=O)c3ccc(F)cc3)n2)CC1 [Example 13, 2-(4-Fluorobenzoyl)amino!-4-thiazoleacetic acid 3-4-(2-methoxyphenyl)-1-piperazinyl!propyl ester]

- inhibition at 1 µM [5]: 91%
- 5-HT1A Binding (% Inhibition at 1 μM) [6]: 89%
SMILES: COc1ccccc1N1CCN(CCCOC(=O)Cc2csc(NC(=O)c3cc(C(C)(C)C)c(O)c(C(C)(C)C)c3)n2)CC1 [Example 14, 2-3,5-Bis(1,1-dimethylethyl)-4-hydroxyphenyl!carbonyl!amino!-4-thiazoleacetic acid 3-4-(2-methoxyphenyl)-1-piperazinyl!propyl ester]

- inhibition at 1 µM [5]: 51%
SMILES: COc1ccccc1N1CCN(CCOC(=O)Cc2csc(NC(=O)c3cc(C(C)(C)C)c(O)c(C(C)(C)C)c3)n2)CC1 [Example 15]

- inhibition at 1 µM [5]: 34%
SMILES: O=C(Cc1csc(NC(=O)c2ccc(F)cc2)n1)OCCN1CCN(c2ncccn2)CC1 [Example 16, 2-(4-Fluorobenzoyl)amino!-4-thiazoleacetic acid 2-4-(2-pyrimidinyl)-1-piperazinyl!ethyl ester]

- inhibition at 0.1 µM ([5]; 0.1 μM): 5%
SMILES: CC(C)(C)c1cc(C(=O)Nc2nc(CC(=O)NCCN3CCN(c4ncccn4)CC3)cs2)cc(C(C)(C)C)c1O [Example 17]

SMILES: COC(=O)C1=CCCN(C)C1 [arecoline]
- half-life (in words) [7]: short half-life
- memory improvement in patients (in words) [8]: memory improvement

SMILES: O=C1CC2(CCCC2)CC(=O)N1CCCCN1CCN(c2ncccn2)CC1 [buspirone]
- 5-HT1A receptor affinity (in words) [9]: potent affinity

SMILES: Nc1c2c(nc3ccccc13)CCCC2 [tacrine]
- adverse side effects (in words) ([8]; especially at the higher doses where it is most effective): adverse side effects
- memory improvement in patients (in words) [8]: improvement in memory
